The text below walks through data of patent US9688710B2, “Inhibitors of sodium glucose cotransporter 1” (LEXICON PHARMACEUTICALS, INC., priority 2012, dated 2017).

Where only a bound is given, the exact number is not on record here.

The target in experiment [1] is Human sodium/glucose co-transporter type 2 (SGLT2) (Homo sapiens (Human), UniProt P31639). As to the kind of experiment: In vitro human SGLT2 inhibition assay (14C-AMG uptake). The format is cell-based. The conditions noted are these: HEK293 cells expressing human HA-SGLT2, 14C-AMG uptake. The procedure, abridged:
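HEK293 cells stably expressing HA-tagged human SGLT2, seeded overnight, washed into Na+-containing HEPES/Tris uptake buffer with 1 mg/mL BSA, pH 7.3. Compound added, then 14C-AMG (100 nCi); 1-2 h at 37 °C, 5% CO2. Washed cells counted by scintillation for 14C-AMG uptake.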

Experiment [2] deals with Human sodium/glucose co-transporter type 1 (SGLT1) (Homo sapiens (Human), UniProt P13866). As to the kind of experiment: In vitro human SGLT1 inhibition assay (14C-AMG uptake). The conditions noted are these: HEK293 cells expressing human HA-SGLT1, 14C-AMG uptake. The class given is cell-based. In short, it runs like this:
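HEK293 cells stably expressing human HA-tagged SGLT1 (30,000/well, overnight) were washed into Na+-containing uptake buffer (140 mM NaCl, HEPES/Tris, 1 mg/mL BSA, pH 7.3). Cells then received compound plus 100 nCi 14C-AMG for 1–2 h at 37 °C; after washing, AMG uptake was quantified by scintillation counting.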

Sequence of Human sodium/glucose co-transporter type 2 (SGLT2) (P31639 whole entry): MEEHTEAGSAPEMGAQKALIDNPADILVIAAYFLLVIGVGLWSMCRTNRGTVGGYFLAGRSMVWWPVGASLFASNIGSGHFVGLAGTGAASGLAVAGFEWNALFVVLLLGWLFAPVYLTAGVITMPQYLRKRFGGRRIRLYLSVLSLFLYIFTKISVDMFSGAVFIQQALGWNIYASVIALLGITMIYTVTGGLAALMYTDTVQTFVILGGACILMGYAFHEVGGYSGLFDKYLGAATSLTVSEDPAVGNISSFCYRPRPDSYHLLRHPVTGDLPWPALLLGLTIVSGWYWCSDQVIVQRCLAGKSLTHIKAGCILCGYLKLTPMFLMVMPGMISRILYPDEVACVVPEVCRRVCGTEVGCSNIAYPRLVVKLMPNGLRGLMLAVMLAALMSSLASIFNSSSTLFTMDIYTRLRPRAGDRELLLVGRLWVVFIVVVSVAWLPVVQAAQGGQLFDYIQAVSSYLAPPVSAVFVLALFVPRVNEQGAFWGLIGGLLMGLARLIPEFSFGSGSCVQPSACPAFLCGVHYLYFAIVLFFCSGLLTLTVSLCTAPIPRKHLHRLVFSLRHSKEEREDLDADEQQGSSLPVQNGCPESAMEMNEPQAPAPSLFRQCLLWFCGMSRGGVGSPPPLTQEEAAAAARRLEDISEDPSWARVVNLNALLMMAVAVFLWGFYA
Sequence of Human sodium/glucose co-transporter type 1 (SGLT1) (P13866 whole entry): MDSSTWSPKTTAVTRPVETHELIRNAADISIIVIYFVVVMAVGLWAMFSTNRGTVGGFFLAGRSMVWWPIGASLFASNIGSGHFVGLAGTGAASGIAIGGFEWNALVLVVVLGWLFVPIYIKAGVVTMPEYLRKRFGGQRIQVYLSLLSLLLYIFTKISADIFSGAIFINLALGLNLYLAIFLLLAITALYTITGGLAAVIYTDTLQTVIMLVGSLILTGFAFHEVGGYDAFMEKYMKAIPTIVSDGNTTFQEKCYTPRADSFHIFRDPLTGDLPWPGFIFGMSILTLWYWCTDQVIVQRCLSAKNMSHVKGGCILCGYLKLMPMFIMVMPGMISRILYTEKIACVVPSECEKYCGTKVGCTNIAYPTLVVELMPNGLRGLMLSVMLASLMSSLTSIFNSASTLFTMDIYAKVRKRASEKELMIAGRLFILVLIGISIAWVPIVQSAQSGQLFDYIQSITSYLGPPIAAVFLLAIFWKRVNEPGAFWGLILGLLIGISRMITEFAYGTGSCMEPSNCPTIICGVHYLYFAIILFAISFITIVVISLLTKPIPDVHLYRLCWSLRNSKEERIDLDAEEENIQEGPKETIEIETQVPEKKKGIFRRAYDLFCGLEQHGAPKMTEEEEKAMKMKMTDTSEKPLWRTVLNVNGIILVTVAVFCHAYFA

Take `CCN(CC)CCOc1ccc(Cc2cc([C@@H]3O[C@H](SC)[C@@H](O)[C@H](O)[C@H]3O)ccc2Cl)cc1` [(2S,3R,4R,5S,6R)-2-(4-chloro-3-(4-(2-(diethylamino)ethoxy)benzyl)phenyl)-6-(methylthio)tetrahydro-2H-pyran-3,4,5-triol]: the IC50 in experiment [1] and in experiment [2] was under 10 nM each time.
Take `CS[C@H]1OC(c2ccc(C)c(Cc3ccc(OCCCNC4(C(N)=O)CCCC4)cc3)c2)[C@H](O)[C@@H](O)[C@@H]1O` (stereo partly drawn) [1-((3-(4-(2-methyl-5-((3R,4R,5S,6R)-3,4,5-trihydroxy-6-(methylthio)tetrahydro-2H-pyran-2-yl)benzyl)phenoxy)propyl)amino)cyclopentanecarboxamide]: the IC50 in experiment [1] and in experiment [2] was under 10 nM in each case.
As to `CS[C@H]1O[C@@H](c2ccc(C)c(Cc3ccc(OCCCC(=O)NC(C)(CO)CO)cc3)c2)[C@H](O)[C@@H](O)[C@@H]1O` [N-(1,3-dihydroxy-2-methylpropan-2-yl)-4-(4-(2-methyl-5-((2S,3R,4R,5S,6R)-3,4,5-trihydroxy-6-(methylthio)tetrahydro-2H-pyran-2-yl)benzyl)phenoxy)butanamide], the IC50 in experiment [1] and in experiment [2] was under 100 nM each time.
Regarding `CS[C@H]1O[C@@H](c2ccc(C)c(Cc3ccc(CCCC(=O)NCCCC[C@H](N)C(=O)O)cc3)c2)[C@H](O)[C@@H](O)[C@@H]1O` [(S)-2-amino-6-(4-(4-(2-methyl-5-((2S,3R,4R,5S,6R)-3,4,5-trihydroxy-6-(methylthio)tetrahydro-2H-pyran-2-yl)benzyl)phenyl)butanamido)hexanoic acid], the IC50 in experiment [1] and in experiment [2] was under 10 nM throughout.
In the case of `CS[C@H]1O[C@@H](c2ccc(C)c(Cc3ccc(CCCC(=O)NC(C)(C)C(=O)N4CCN(CCO)CC4)cc3)c2)[C@H](O)[C@@H](O)[C@@H]1O` [N-(1-(4-(2-hydroxyethyl)piperazin-1-yl)-2-methyl-1-oxopropan-2-yl)-4-(4-(2-methyl-5-((2S,3R,4R,5S,6R)-3,4,5-trihydroxy-6-(methylthio)tetrahydro-2H-pyran-2-yl)benzyl)phenyl)butanamide], the IC50 in experiment [1] and in experiment [2] was under 10 nM throughout.
Take `CS[C@H]1O[C@@H](c2ccc(Cl)c(Cc3ccc(OCCCC(=O)NCC(C)(C)C(N)=O)cc3)c2)[C@H](O)[C@@H](O)[C@@H]1O` [N-(3-amino-2,2-dimethyl-3-oxopropyl)-4-(4-(2-chloro-5-((2S,3R,4R,5S,6R)-3,4,5-trihydroxy-6-(methylthio)tetrahydro-2H-pyran-2-yl)benzyl)phenoxy)butanamide]: the IC50 is under 10 nM in experiment [1] and under 100 nM in experiment [2].
`CS[C@H]1O[C@@H](c2ccc(C)c(Cc3ccc(CCCC(=O)NC(C)(C)C(=O)NC4CCN(C(=O)OC(C)(C)C)CC4)cc3)c2)[C@H](O)[C@@H](O)[C@@H]1O` [tert-butyl 4-(2-methyl-2-(4-(4-(2-methyl-5-((2S,3R,4R,5S,6R)-3,4,5-trihydroxy-6-(methylthio)tetrahydro-2H-pyran-2-yl)benzyl)phenyl)butanamido)propanamido)piperidine-1-carboxylate]: the IC50 in experiment [1] and in experiment [2] was under 10 nM throughout.
On to `CS[C@H]1O[C@@H](c2ccc(C)c(Cc3ccc(CCCC(=O)NCC(C)(C)N)cc3)c2)[C@H](O)[C@@H](O)[C@@H]1O` [N-(2-amino-2-methylpropyl)-4-(4-(2-methyl-5-((2S,3R,4R,5S,6R)-3,4,5-trihydroxy-6-(methylthio)tetrahydro-2H-pyran-2-yl)benzyl)phenyl)butanamide], for which the IC50 in experiment [1] and in experiment [2] was under 10 nM in each case.
In the case of `CS[C@H]1O[C@@H](c2ccc(C)c(Cc3ccc(CCCC(=O)NCC(C)(C)C(=O)N4CCN(C)CC4)cc3)c2)[C@H](O)[C@@H](O)[C@@H]1O` [N-(2,2-dimethyl-3-(4-methylpiperazin-1-yl)-3-oxopropyl)-4-(4-(2-methyl-5-((2S,3R,4R,5S,6R)-3,4,5-trihydroxy-6-(methylthio)tetrahydro-2H-pyran-2-yl)benzyl)phenyl)butanamide], the IC50 in experiment [1] and in experiment [2] was under 10 nM each time.
For the molecule `CS[C@H]1O[C@@H](c2ccc(Cl)c(Cc3ccc(OCC(=O)NC(C)(C)C(N)=O)cc3)c2)[C@H](O)[C@@H](O)[C@@H]1O` [2-(2-(4-(2-chloro-5-((2S,3R,4R,5S,6R)-3,4,5-trihydroxy-6-(methylthio)tetrahydro-2H-pyran-2-yl)benzyl)phenoxy)acetamido)-2-methylpropanamide], the IC50 in experiment [1] is under 10 nM; in experiment [2], under 100 nM.
On the same counts, the results for `CS[C@H]1O[C@@H](c2ccc(Cl)c(Cc3ccc(OCCNC(=O)NC(C)(C)CO)cc3)c2)[C@H](O)[C@@H](O)[C@@H]1O` [1-(2-(4-(2-chloro-5-((2S,3R,4R,5S,6R)-3,4,5-trihydroxy-6-(methylthio)tetrahydro-2H-pyran-2-yl)benzyl)phenoxy)ethyl)-3-(1-hydroxy-2-methylpropan-2-yl)urea] are under 10 nM and under 10 nM.
For `CS[C@H]1O[C@@H](c2ccc(C)c(Cc3ccc(OCCCC(=O)NC(C)(C)C(N)=O)cc3)c2)[C@H](O)[C@@H](O)[C@@H]1O` [N-(1-amino-2-methyl-1-oxopropan-2-yl)-4-(4-(2-methyl-5-((2S,3R,4R,5S,6R)-3,4,5-trihydroxy-6-(methylthio)tetrahydro-2H-pyran-2-yl)benzyl)phenoxy)butanamide], in that order: under 10 nM and under 10 nM.
For `CS[C@H]1O[C@@H](c2ccc(C)c(Cc3ccc(CCCC(=O)NC4(C(=O)N5CCN(C)CC5)CCOCC4)cc3)c2)[C@H](O)[C@@H](O)[C@@H]1O` [4-(4-(2-methyl-5-((2S,3R,4R,5S,6R)-3,4,5-trihydroxy-6-(methylthio)tetrahydro-2H-pyran-2-yl)benzyl)phenyl)-N-(4-(4-methylpiperazine-1-carbonyl)tetrahydro-2H-pyran-4-yl)butanamide], in that order: under 10 nM and under 10 nM.
As to `CS[C@H]1O[C@@H](c2ccc(C)c(Cc3ccc(CCCCC(=O)NCCCC[C@H](N)C(=O)O)cc3)c2)[C@H](O)[C@@H](O)[C@@H]1O` [(S)-2-amino-6-(5-(4-(2-methyl-5-((2S,3R,4R,5S,6R)-3,4,5-trihydroxy-6-(methylthio)tetrahydro-2H-pyran-2-yl)benzyl)phenyl)pentanamido)hexanoic acid], the results for the IC50 in experiment [1] and in experiment [2] were under 10 nM and under 100 nM, respectively.
For `CS[C@H]1O[C@@H](c2ccc(Cl)c(Cc3ccc(OCC(=O)O)cc3)c2)[C@H](O)[C@@H](O)[C@@H]1O` [2-(4-(2-chloro-5-((2S,3R,4R,5S,6R)-3,4,5-trihydroxy-6-(methylthio)tetrahydro-2H-pyran-2-yl)benzyl)phenoxy)acetic acid], in that order: under 100 nM and under 1000 nM.
On the same counts, the results for `CS[C@H]1O[C@@H](c2ccc(C)c(Cc3ccc(CCCC(=O)NCCCN(C)CCCNC(=O)CCCc4ccc(Cc5cc([C@@H]6O[C@H](SC)[C@@H](O)[C@H](O)[C@H]6O)ccc5C)cc4)cc3)c2)[C@H](O)[C@@H](O)[C@@H]1O` [(S,R,S,R,R)-N,N′-((methylazanediyl)bis(propane-3,1-diyl))bis(4-(4-(2-methyl-5-((2S,3R,4R,5S,6R)-3,4,5-trihydroxy-6-(methylthio)tetrahydro-2H-pyran-2-yl)benzyl)phenyl)butanamide)] are under 10 nM and under 10 nM.
